Experimental data published in ChEMBL document CHEMBL4000202, “Identification of a diverse synthetic abietane diterpenoid library for anticancer activity” (Bioorg Med Chem Lett, 2017).

Experiments:
Type in all cases: functional, cell-based
A549 = experiment: Cytotoxic activity against human A549 cells assessed as reduction in cell viability after 72 hrs by SRB assay; settings: A549, 72 h
SK-OV-3 = experiment: Cytotoxic activity against human SKOV3 cells assessed as reduction in cell viability after 72 hrs by SRB assay; settings: SK-OV-3, 72 h
PC-3 = experiment: Cytotoxic activity against human PC3 cells assessed as reduction in cell viability after 72 hrs by SRB assay; settings: PC-3, 72 h

SMILES	IC50 (A549) [µM]	IC50 (SK-OV-3) [µM]	IC50 (PC-3) [µM]
COc1cccc2c1CC[C@H]1C3=C(CC[C@]21C)C(=O)OC3	> 100	> 100	> 100
COc1c(C(C)C)ccc2c1CC[C@H]1C(=O)CCC[C@]21C	> 100	> 100	> 100
C=C1C(=C(SC)SC)CC[C@]2(CO)c3ccc(C(C)C)c(OC)c3CC[C@@H]12	53.8	32.9	50.1
CC(C)c1ccc2c(c1)CC[C@H]1[C@](C)(C(=O)O)CCC[C@]21C [DEHYDROABIETIC ACID]	74.3	66	51.3
CC(C)(C)[Si](C)(C)O[C@@H]1CC[C@]2(C)c3ccccc3CC[C@H]2[C@H]1CO	> 100	> 100	> 100
COc1c(C(C)C)ccc2c1CC[C@H]1[C@@H](CO)[C@H](O)CC[C@]21C	> 100	> 100	> 100
COc1c(C(C)C)ccc2c1CC[C@H]1C3=C(CC[C@]21CO)C(=O)OC3	> 100	> 100	> 100
CC(C)(C)C(=O)OC[C@H]1[C@H](O)CC[C@]2(C)c3ccccc3CC[C@@H]12	64.5	43.2	49.2
C=C1C(=O)CC[C@]2(C)c3ccc(C(C)C)c(OC)c3CC[C@@H]12	9.31	7.49	7.28
C=C1CCC[C@]2(C)c3ccc(C(C)C)c(OC)c3CC[C@@H]12	99.1	> 100	> 100
CC(C)[C@]12O[C@H]1[C@@H]1O[C@]13[C@]1(O[C@H]1C[C@H]1C4=C(CC[C@@]13C)C(=O)OC4)[C@@H]2O [TRIPTOLIDE]	0.0175	0.0072	0.0183
COc1c(C(C)C)ccc2c1CC[C@@]1(O)C3=C(C(=O)OC3)[C@@H](O)C[C@]21C	> 100	92.2	> 100
C=C1C(=C(SC)SC)CC[C@]2(COCOCC)c3ccc(C(C)C)c(OC)c3CC[C@@H]12	99.8	26	19.4
CC(C)c1ccc2c(c1O)C(=O)C[C@H]1C3=C(CC[C@]21CO)C(=O)OC3	> 100	95.4	92.2
C=CCc1ccc2c(c1O)C(=O)C[C@H]1C3=C(CC[C@]21C)C(=O)OC3	95.8	39.4	68
CC(C)c1ccc2c(c1O)C(=O)C[C@H]1C3=C(CC[C@]21C)C(=O)OC3	77.3	42.5	58
COc1c(C(C)C)ccc2c1C=C[C@H]1C3=C(CC[C@]21C)C(=O)OC3	> 100	> 100	> 100
COc1c(C(C)C)ccc2c1CC[C@H]1[C@@H]3COC(=O)[C@@H]3CC[C@]21C	> 100	> 100	> 100
COC(=O)[C@]1(C)CCC[C@]2(C)c3cc([N+](=O)[O-])c(C(C)C)cc3CC[C@@H]12	89.4	47.8	81.9
COC(=O)[C@]1(C)CCC[C@@]2(C)[C@H]1CC=C1[C@@H]2CC[C@](O)(C(C)C)[C@H]1O	92.4	92.9	> 100
COc1c(C(C)C)ccc2c1CC[C@@]1(O)C3=C(CC[C@]21C)C(=O)OC3	> 100	> 100	> 100
COC(=O)[C@]1(C)CCC[C@@]2(C)[C@H]1CC=C1C(=O)[C@@](O)(C(C)C)CC[C@@H]12	85.1	99.2	> 100

SMILES	IC50 (A549) [µM]	IC50 (SK-OV-3) [µM]	IC50 (PC-3) [µM]
COC(=O)[C@]1(C)CCC[C@]2(C)c3ccc(C(C)C)c(O)c3CC[C@@H]12	56	42.9	22.3
CCOCC[C@]12CCC3=C(COC3=O)[C@@H]1CCc1c2ccc(C(C)C)c1OC	> 100	> 100	> 100
COc1cccc2c1CC[C@H]1[C@H]3COC(=O)C3=CC[C@]21C	88.9	> 100	> 100
C=C1[C@H](O)CC[C@]2(C)c3ccc(C(C)C)c(OC)c3CC[C@@H]12	99.6	> 100	> 100
COC(=O)[C@]1(C)CCC[C@@]2(C)[C@H]1CC=C1C=C(C(C)C)CC[C@@H]12 [METHYL ABIETATE]	63.1	81.3	79.3
COc1c(C(C)C)ccc2c1CC[C@H]1[C@@H](O)CCC[C@]21C	> 100	> 100	98.2
COC(=O)[C@]1(C)CCC[C@]2(C)c3ccc(C(C)C)c(OC)c3C(=O)C[C@@H]12	> 100	> 100	99.4
C=CCOc1cccc2c1C(=O)C[C@H]1C3=C(CC[C@]21C)C(=O)OC3	89.4	> 100	> 100
C=C1[C@H](O[Si](C)(C)C(C)(C)C)CC[C@]2(C)c3ccccc3CC[C@@H]12	97.9	91.8	> 100
COc1c(C(C)C)ccc2c1CC=C1C3=C(CCC12C)C(=O)OC3 (single isomer, unassigned)	74.9	24	48
COC(=O)[C@]1(C)CCC[C@]2(C)c3ccc(C(C)C)c(OC)c3CC[C@@H]12	> 100	65.2	59.9
COc1c(C(C)C)ccc2c1CC[C@H]1C3=C(CC[C@]21C)C(=O)OC3	98.8	49.8	50.4
COC(=O)[C@]1(C)CCC[C@]2(C)c3ccc(C(C)C)cc3CC[C@@H]12 [METHYL DEHYDROABIETATE]	41.2	51.3	37.7
COC(=O)[C@]1(C)CCC[C@]2(C)c3ccc(C(C)C)c([N+](=O)[O-])c3CC[C@@H]12	> 100	> 100	> 100
COc1c(C(C)C)ccc2c1CC[C@H]1[C@@H](O)CCC[C@]21CO[N+](=O)[O-]	> 100	> 100	> 100
COc1ccc(COC[C@H]2[C@H](O)CC[C@]3(C)c4cccc(OC)c4CC[C@@H]23)cc1	5.39	6.19	3.37
C=C1C(CO)=CC[C@]2(C)c3ccc(C(C)C)c(OC)c3C(=O)C[C@@H]12	> 100	> 100	> 100
COC(=O)[C@]1(C)CCC[C@]2(C)c3ccc(C(C)C)c(OC)c3[C@H](O)C[C@@H]12	76.6	72.2	55.9
COc1cccc2c1CC[C@H]1[C@H]3COC(=O)[C@@]3(O)C(=O)C[C@]21C	> 100	> 100	> 100
C[C@]12CCC3=C(COC3=O)[C@@H]1CCc1ccccc12	> 100	> 100	> 100
C=C1[C@@H]2CC(=O)c3c(ccc(C(C)C)c3OC)[C@@]2(C)CC[C@@]1(O)CO	25	59.6	27.2
C=CCc1cc(C(C)C)c(O)c2c1[C@@]1(C)CCC3=C(COC3=O)[C@@H]1CC2=O	97.5	87.1	95.1
